Assays:
[1] = system: p53 and FoxO1; experiment: Western blot of p53 and FoxO1 acetylation/phosphorylation in HNDFs; assay type: cell-based, human; settings: for HG-induced p53 phosphorylation at Ser15: ANM 10 μM or NAC 100 μM + HG 30 mM; for total p53 and FoxO1 levels: HNDFs, with or without HG; for protection against HG-induced decrease in FoxO1 phosphorylation: co-treatment with HG 30 mM
Description: It is well known that p16^INK4A and p21^CIP1 are regulated by transcription factors p53 and FoxO1 followed by acetylation. […] In addition, p53 phosphorylation at Ser15 by their upstream kinases promotes transcriptional activation in response to DNA damage.
To further examine the phenomenon that HG-induced p53 activation is relayed by the p38 MAPK or JNK/SAPK cascade, cells are incubated with corresponding pharmacological inhibitors, SB203580, SP600125, PD98059 and LY294002 for p38MAPK, JNK/SAPK, ERK1/2 and P13K/AKT, respectively in the presence of HG.
The protein expression levels of SIRT-1, SIRT-6, p21^CIP1, SMP30, p53, FoxO and acetylation of p53 and FoxO1 are determined by western blot analysis.
(§1) Cells are lysed by either RIPA lysis buffer or nuclear and cytoplasmic extraction reagents (Thermo Fisher Scientific). Protein concentrations are determined by Bio-Rad protein assay reagent (Bio-Rad Laboratories, Hercules, Calif.). Equal amounts of protein samples (60 μg) are separated by 7-12% SDS-PAGE and the separated proteins are transferred onto polyvinylidene […] (PVDC) membrane overnight. The transferred protein membranes are blocked with 5% non-fat dried milk for 30 min, followed by incubation with specific primary antibodies overnight, and either horseradish peroxidase-conjugated goat anti-rabbit or anti-mouse antibodies for 2 h. The blots are detected using VL Chemi-Smart 3000 (Viogene Biotek, Sunnyvale, Calif.) with the enhanced chemiluminescence (ECL) western blotting reagent (Millipore, Billerica, Mass.).

[2] = system: Keap-1; experiment: Keap-1 protein level and ubiquitination (western blot, immunoprecipitation) in HNDFs; assay type: cell-based, human; settings: for ubiquitination of total protein: HNDFs treated with ANM or NAC
Description: Under normal physiological condition, Nrf2 is sequestered in the cytoplasm, where it associated with Keap-1, an actin-binding protein. Upon chemical treatment or oxidative stress conditions, the steady-state levels of Keap-1 is rapidly degraded through the ubiquitin-dependent proteasome pathway, which eventually causes Nrf2 accumulation and transcriptional activity. […] In FIG. 5H, the Keap-1 protein expression level is determined by western blotting.
In FIG. 5I, effect of ANM on ubiquitination of Keap-1 is examined. Equivalent amount of proteins are immune-precipitated with Keap-1 antibody and visualized by western blotting with ubiquitin antibody. […] Results are expressed as mean±S.E.M of three independent experiments. Statistical significance is set at ^ϕP<0.05 as compared to NG vs. HG or ANM alone or NAC alone and *P<0.05 as compared to HG vs. samples. […] Therefore, it is further examined whether AKT and ERK1/2 have any influence on Keap-1 ubiquitination. Cells are co-incubated with AKT, p38MAPK, JNK and ERK1/2 inhibitors in the presence of […]; and the Keap-1 ubiquitination is examined.
HNDFs are seeded at a density of 1×10^6 cells/dish in 10 cm dish and treated with ANM or pharmacological inhibitors of AKT, JNK/SAPK, p38 MAPK and ERK1/2 in the presence or absence of HG. After treatment, cells are lysed with RIPA buffer containing protease inhibitor cocktail. The lysates are homogenized and centrifuged at 16,000×g for 15 min at 4° C. The supernatant is collected and the protein concentration is determined by Bio-Rad protein assay reagent. Total protein extract containing 500 μg of proteins are precleared with protein-A agarose beads for 1 h and incubated with 3 μg of anti-Keap-1 antibody for overnight at 4° C. with gently shake. After overnight incubation, centrifuged at 2000×g for 5 min at 4° C., the supernatant is discarded and the reaming pellet is washed with RIPA buffer. Immunoprecipitated complexes are mixed with SDS sample buffer and denatured at 94° C. for 5 min. Equal amount of protein samples are subjected to western blotting. The ubiquitinated Keap-1 protein levels are determined by ubiquitin antibody.

[3] = system: pRb, cyclin D1, cyclin E, cyclin B1, CDK4, CDK6, CDK2 and Cdc2; experiment: Western blot of cell-cycle regulatory proteins in HNDFs; assay type: cell-based, human; settings: 72 h; for cyclin D1, CDK4, CDK6, cyclin E and CDK2 protein levels under HG: ANM 10 μM or NAC 100 μM + HG 30 mM
Description: To further clarify this effect, G1-S transition regulatory proteins are determined by immunoblotting. In FIG. 3B, western blot analysis is performed to determine the expression levels of cell-cycle regulatory proteins including, pRb, cyclin D1, cyclin E, cyclin B1, CDK4, CDK6, CDK2 and Cdc2; and GAPDH is served as an internal control.
as §1

[4] = Cell-free DPPH free-radical scavenging assay; assay type: biochemical; settings: cell-free system
Description: Therefore, next to determine whether ANM acts directly as a free-radical scavenger, a cell-free DPPH free-radical scavenging assay is performed. In FIG. 5A, to determine the free-radical scavenging effect of ANM, cell-free DPPH assay is performed.

[5] = system: HNDFs; experiment: SA-β-gal senescence assay in HG-induced HNDFs; assay type: cell-based, human; settings: 72 h
Description: Next, the protective effects of antcins on HG-induced HNDF senescence are examined. In FIG. 2B, cells were incubated with ANA (10 μM), ANH (10 μM) and ANM (10 μM) in the presence of HG (30 mM) for 72 h. Cellular senescence is determined by SA-β-gal activity. […] After cells are co-incubated with HG and antcins (ANA, ANH and ANM) for 72 h, senescence is measured by SA-β-gal assay.
Therefore, in order to examine whether the ROS inhibitory effect may be extended to suppress HG-induced senescence, HG-induced senescenece eliminated by ANM is examined. In FIG. 4B, HNDFs are incubated with ANM (10 μM) or NAC (100 μM) in the presence or absence of HG (30 mM) for 72 h. Cellular senescence is determined by SA-β-gal assay. […] As is shown, cells are co-incubated with HG and ANM or NAC for 72 h.
Senescence-associated β-galactosidase (SA-β-gal) activity is determined in formaldehyde-fixed histochemical staining kit according to the manufacturer's instructions (Cell Signaling Technology, Danvers, Calif.). Briefly, cells are grown in 6-well plates at a density of 5×10^4 cells/well, and incubated with HG or test samples for 48 h (HUVECs) or 72 h (HNDFs). After incubation, cells are stained with SA-β-gal staining solution at pH 6.0 overnight and then the development of blue staining is observed and photographed under a bright-field microscope (Motic Electric Group, Xiamen, P.R. China).

SMILES: CC(=O)N[C@@H](CS)C(=O)O [NAC, N-acetylcysteine, reference compound]
- HG-induced p53 phosphorylation at Ser15 [1]: significantly blocked
- total p53 and FoxO1 levels [1]: neither ANM nor NAC affected
- protection against HG-induced decrease in FoxO1 phosphorylation [1]: fails to protect
- ubiquitination of total protein [2]: significant increase
- cyclin D1, CDK4, CDK6, cyclin E and CDK2 protein levels under HG [3]: partially rescues
- free-radical scavenging effect (DPPH) [4]: potent free-radical scavenging effect

SMILES: C=C(CCC(C)C1CCC2C3=C(C(=O)C(O)C21C)C1(C)CCC(O)C(C)C1CC3)C(C)C(=O)O (centres unmarked) [ANM, antcin M]
- SA-β-gal positive cells ([5]; 10 μM compound + HG 30 mM, HG alone 9.59-fold (FIG. 2B)): 1.51 fold
- HG-induced senescence (SA-β-gal activity), control siRNA cells (SIRT-1 experiment) ([5]; ANM 10 μM + HG): significantly inhibits
- HG-induced senescence (SA-β-gal), control siRNA cells (Nrf2 experiment) ([5]; ANM 10 μM + HG): significantly inhibits
- HG-induced senescence (SA-β-gal), siNrf2-transfected cells ([5]; ANM 10 μM + HG): significantly prevents
- SA-β-gal positive cells ([5]; ANM 10 μM or NAC 100 μM + HG 30 mM, HG alone 5.72-fold (FIG. 4B)): 1.89 fold
- SA-β-gal activity, SIRT-1 siRNA transfected cells ([5]; ANM 10 μM or RES + HG): remains partially elevated
- HG-induced p53 and FoxO1 acetylation ([1]; ANM 10 μM + HG 30 mM, 72 h): barely observed
- HG-induced p21^CIP1 expression and acetylation in p53 and FoxO1, control siRNA cells ([1]; ANM 10 μM + HG, 72 h): significantly attenuated
- p21^CIP1 expression, p53/FoxO1 deacetylation, SMP30 upregulation in SIRT-1 silenced cells ([1]; ANM 10 μM + HG, 72 h, siSIRT-1): fails to inhibit
- HG-induced p53 phosphorylation at Ser15 [1]: significantly blocked
- total p53 and FoxO1 levels [1]: neither ANM nor NAC affected
- protection against HG-induced decrease in FoxO1 phosphorylation [1]: fails to protect
- ubiquitination of Keap-1, co-incubated with HG ([2]; ANM + HG): further increase
- Keap-1 protein level ([2]; ANM alone or in HG-induced condition): significantly decreased
- ubiquitination of Keap-1 ([2]; ANM alone, immunoprecipitation with anti-Keap-1): remarkable increase
- ubiquitination of total protein [2]: significant increase
- cyclin B1 and Cdc2 levels ([3]; ANM 10 μM + HG 30 mM): unaffected
- protein Rb phosphorylation under HG ([3]; ANM 10 μM + HG 30 mM): significantly inhibits
- cyclin D1, CDK4, CDK6, cyclin E and CDK2 protein levels under HG [3]: upregulated
- free-radical scavenging effect (DPPH) [4]: fails to scavenge free radicals
